Blank lines part the entries; values can stand above or below the compound they belong to.
Key:
cotton [1] = experiment: Soil drought experiment, cotton; assay type: in vivo; details: 50 μM every 4 days; after 10 days of drought
Method: (§1) Soybeans and cotton used in leaf transpiration experiments for compound 0720B were also used for soil drought experiments. Each pot contained only one plant and was filled with the same weight of soil to reduce experimental errors. All of the soybean plants were grown at 26° C. for long-day culture. 16 days after seeding, watering was stopped and the plants with consistent growth were selected for drought treatment. […] Cotton drought experiments were similar to that of the soybean. 23 days after seeding, the watering was stopped, and the plants with consistent growth were selected for drought treatment. […] After 10 days of drought, the photos were taken.

[2] = system: PYR1/PYL1/PYL2/PYL7 + HAB1; experiment: AlphaScreen experiment, PYL receptor binding to HAB1; parameters: species or system Arabidopsis; details: AMX: PYR1/PYL1/PYL2/PYL7; 0720B: PYL2 receptor and PYL1 receptor
Method: (§2) After incubating for 1.5 hours at room temperature in the dark, it was placed into an Envision Plate Reader (available from Perkin Elmer) under the programmed AlphaScreen procedure for readings.

cotton [3] = experiment: Cotton leaf transpiration experiment (thermal imaging); assay type: in vivo; details: 50 μM; after two days; vs DMSO
Method: (§3) Leaf transpiration experiments of soybean and cotton for compound 0720B were carried out at 26° C. with long-day lighting. 16 days and 23 days after sowing, a solution containing 0.1% tween-20 and corresponding concentration of (+)-ABA, or 0720B compound or 0.1% Tween-20 and 0.05% DMSO (control) was sprayed in an amount of 4 ml/pot. Images were taken daily using the FLIR A655sc thermal imaging camera at the same time before and after spraying.

[4] = system: PYR/PYL receptors (PYR1, PYL1, PYL2 and PYL7)-HAB1 complex; experiment: Broad spectrum experiment on PYR/PYL receptors (HAB1 phosphatase activity); assay type: biochemical, Arabidopsis; details: 1 μM; for binding ability with PYR1/PYL1/PYL2/PYL7 compared with ABA: FIG. 1, FIG. 13
Method: (§4) HAB1 Phosphatase Activity Assay […] The reaction system was incubated at room temperature for 30 minutes, followed by a further reaction for 30 minutes after adding an 11-amono acid phosphorylated polypeptide as a substrate. The phosphorylated polypeptide consisting of amino acid 170-180 of SnRK2.6 protein kinase (sequence […]) was purchased from […] company, wherein phosphorylated […] was a known HAB1 dephosphorylation target site. After 30 minutes, chromogenic reagent (purchased from BioVision) was added and the absorbance at 650 nm was read on a microplate reader (Molecular Devices).

soybean Williams 82 = experiment: Soybean leaf transpiration experiment (thermal imaging); assay type: in vivo
Method: After three weeks of continuous watering, 0.05% tween-20 and corresponding concentrations of DMSO (control)/compound (+)-ABA/0918/1127 were sprayed onto the plants in a single administration with an amount of 1.2 ml/pot. Images were taken daily using the FLIR A655sc thermal imaging camera at the same time before and after spraying. The Williams 82 ecotype was used in soybean leaf transpiration experiments for compounds 0604c, 0918 and 1127 and was long-day cultured at 26° C. After the plants grew and had 3 leaves in each of 3 groups, 0.05% tween-20 and 50 μM DMSO (control)/(+)-ABA/0604c/0918/1127 compounds were sprayed in a single administration with an amount of 4 ml/pot. Images were taken daily using the FLIR A655sc thermal imaging camera at the same time before and after spraying.
as §3

PYL2 + HAB1 [5] = biological target: T1, PYL2 + HAB1 (Arabidopsis thaliana, UniProt O80992); experiment: HAB1 phosphatase activity assay with PYL2, SnRK2.6 phosphorylated polypeptide substrate; assay type: biochemical; details: PYL2 receptor; same concentration as ABA
T1 construct: made in house; host or cells: E. coli BL21 (DE3)
T1 sequence (O80992 14-188 limits assumed): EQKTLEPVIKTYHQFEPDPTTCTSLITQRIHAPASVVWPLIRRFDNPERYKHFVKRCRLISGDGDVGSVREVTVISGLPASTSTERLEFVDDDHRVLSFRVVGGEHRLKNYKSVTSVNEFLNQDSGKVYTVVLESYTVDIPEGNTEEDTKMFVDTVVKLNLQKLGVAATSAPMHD
T1 sequence (Q9CAJ0 172-511 partner limits assumed): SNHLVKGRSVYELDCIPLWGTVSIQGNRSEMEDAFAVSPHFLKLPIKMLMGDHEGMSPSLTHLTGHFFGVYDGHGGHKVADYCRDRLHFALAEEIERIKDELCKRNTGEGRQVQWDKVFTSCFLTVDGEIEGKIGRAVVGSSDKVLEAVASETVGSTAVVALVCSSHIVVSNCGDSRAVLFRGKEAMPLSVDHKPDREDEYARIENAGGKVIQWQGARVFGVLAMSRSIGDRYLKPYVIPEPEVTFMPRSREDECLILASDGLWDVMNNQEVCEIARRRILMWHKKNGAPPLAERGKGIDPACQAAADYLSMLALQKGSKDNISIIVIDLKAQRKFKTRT
Method: as §4

PYL2 + HAB1 [6] = biological target: T1, PYL2 + HAB1; experiment: AlphaScreen experiment, PYL2 + HAB1; assay type: binding; details: number in brackets; read-out: Half maximum effect concentration EC50 (PYL2 + HAB1)
Method: as §2

soybean = experiment: Soil drought experiment, soybean; assay type: in vivo
Method: as §1, with “Only one plant was contained in each pot. All soybean plants were long-day cultured at 26° C. Watering was stopped after the plant had three leaves in each of three groups of leaves and the plants with consistent growth were selected for drought treatment. As for corn, watering was stopped during the small trumpet period for drought treatment. […] After a week, the watering was resumed. Soybeans” for “Soybeans”

[7] = system: ABA-induced environmental stress-related gene expression; experiment: Gene expression analysis (fluorescence quantitative PCR); assay type: in vivo, Arabidopsis thaliana (Col-0); details: one day after treatment; ABA 10 μM
Method: The whole plant or leaves were taken, and RNA extraction was carried out by using conventional methods. After reverse transcription, the fluorescence quantitative PCR was carried out. Triple biological samples were taken for each treatment which was performed twice. The ACT7 gene was used as a reference gene.

[8] = system: soybean GmPYL3 and GmPYL6 + Arabidopsis AtHAB1; experiment: AlphaScreen experiment with soybean GmPYL receptors; assay type: binding; details: FIG. 9
Method: as §2

PYR1 + HAB1 = biological target: T2, PYR1 + HAB1 (Arabidopsis thaliana, UniProt O49686); experiment: AlphaScreen experiment, PYR1 + HAB1; assay type: binding; details: column 2; number in brackets; read-out: Half maximum effect concentration EC50 (PYR1 + HAB1)
T2 sequence (O49686 1-191): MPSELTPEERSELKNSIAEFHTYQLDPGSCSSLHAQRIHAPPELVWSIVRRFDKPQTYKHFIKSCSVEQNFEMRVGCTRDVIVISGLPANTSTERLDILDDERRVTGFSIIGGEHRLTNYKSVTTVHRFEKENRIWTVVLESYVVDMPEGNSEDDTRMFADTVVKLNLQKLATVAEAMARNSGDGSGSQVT
T2 sequence (Q9CAJ0 172-511 partner): T1 sequence (Q9CAJ0 172-511 partner limits assumed)
Method: as §2

PYL7 + HAB1 = biological target: T3, PYL7 + HAB1 (Arabidopsis thaliana, UniProt Q1ECF1); experiment: AlphaScreen experiment, PYL7 + HAB1; assay type: binding; details: number in brackets; read-out: Half maximum effect concentration EC50 (PYL7 + HAB1)
T3 construct: made in house; host or cells: E. coli BL21 (DE3)
T3 sequence (Q1ECF1 1-211): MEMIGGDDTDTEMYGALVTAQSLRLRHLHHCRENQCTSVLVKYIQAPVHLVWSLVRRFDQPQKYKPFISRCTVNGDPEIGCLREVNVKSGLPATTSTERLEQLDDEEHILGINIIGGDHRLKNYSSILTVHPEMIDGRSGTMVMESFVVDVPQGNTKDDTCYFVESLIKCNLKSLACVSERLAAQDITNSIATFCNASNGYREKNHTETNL
T3 sequence (Q9CAJ0 172-511 partner limits assumed): T1 sequence (Q9CAJ0 172-511 partner limits assumed)
Method: as §2

[9] = system: Arabidopsis ABA synthesis defective mutant aba2-1; assay type: in vivo, Arabidopsis thaliana; details: 5 μM sprayed; after 4 days; vs DMSO
[10] = system: Arabidopsis thaliana Col-0 ecotype seeds; experiment: Seed germination, Col-0; assay type: in vivo; details: 1 μM
Excerpt: (§5) Two lines of plant were sown simultaneously on a single medium of 6 cm diameter, with 15 seeds sown for each line and 4 replicates for each compound. […]

[11] = system: pyr1;pyl1;pyl4 triple mutant seeds; experiment: Seed germination, PYR/PYL triple mutant; assay type: in vivo, Arabidopsis thaliana; details: 1 μM; six days after seeding
Excerpt: as §5

[12] = system: Arabidopsis Col-0 ecotype; experiment: Soil drought experiment, Arabidopsis; assay type: in vivo, Arabidopsis thaliana
Method: Seeds of Arabidopsis Col-0 ecotype were sterilized with NaClO and then sown on ½ MS solid medium at 4° C. for 3 days of vernalization. After 6 days of growing, the well-grown seedlings having uniform size were selected and transferred into 8×7×6 cm^3 pots. Each pot was filled with the same weight of soil and the same number of plants (six plants) was planted to reduce experimental error. All the pots were subjected to a short-day culture at 22° C. After two weeks, watering was stopped for drought treatment. […] The position of the flowerpot was changed every day during the process of drought to reduce the error caused by environmental factors. During the whole drought period, the solution was sprayed twice in total and photos were recorded regularly. The watering was resumed in about three weeks.

maize (corn) = experiment: Soil drought experiment, maize; assay type: in vivo; details: 50 μM; a week of drought
Method: Only one plant was contained in each pot. All soybean plants were long-day cultured at 26° C. Watering was stopped after the plant had three leaves in each of three groups of leaves and the plants with consistent growth were selected for drought treatment. As for corn, watering was stopped during the small trumpet period for drought treatment. […] After a week, the watering was resumed.

PYL receptor binding affinity compared with ABA [2]: significantly superior to ABA
binding ability with PYR1/PYL1/PYL2/PYL7 compared with ABA [4]: significantly higher than that of ABA
EC50 (PYL2 + HAB1 [6]): 30 nM
SMILES: CCCN1C(=O)CC(C)c2cc(NS(=O)(=O)Cc3c(F)c(F)c(C)c(F)c3F)ccc21 (stereo not drawn) [Compound 0720B]
growth (cotton [1]): significantly better than that of the plants sprayed with DMSO (control) and the plants sprayed with 50 μM ABA
leaf temperature (cotton [3]): significantly higher than that in plants sprayed with DMSO
leaf temperature (soybean Williams 82; one day after spraying, 10 μM, 20 μM or 50 μM): significantly higher than that of plants in DMSO-sprayed control and that of plants sprayed with 50 μM ABA
leaf temperature (soybean Williams 82; two days after spraying, 0720B 20 μM or 50 μM, ABA 50 μM): significantly higher than that of the DMSO-sprayed control
inhibition of the dephosphorylation effect of HAB1 on SnRK2.6 phosphorylated polypeptide compared with ABA (PYL2 + HAB1 [5]): significantly better than that of ABA at the same concentration
growth after rewatering (soybean; 10 μM, 20 μM or 50 μM every 3 days, rewatered 11 days after drought): significantly better than that of the plants sprayed with DMSO (control) and the plants sprayed with 50 μM ABA

SMILES: CCCN1C(=O)CCc2cc(NS(=O)(=O)Cc3ccc(C)c(F)c3F)ccc21 [Compound 0918]
expression level of relevant genes compared with ABA [7]: significantly higher than that in the plants treated with 10 μM ABA
affinities for soybean GmPYL proteins compared with ABA [8]: significantly higher affinities
EC50 (PYR1 + HAB1): 20 nM
EC50 (PYL7 + HAB1): 20 nM
leaf temperature [9]: still higher than that in the control group
inhibition effect on germination of Col-0 ecotype seeds compared with control compound [10]: significantly better inhibition effect
germination of Col-0 ecotype seeds ([10]; six days after seeding): could still inhibit germination of Col-0 ecotype seeds
germination of pyr1;pyl1;pyl4 triple mutant seeds [11]: could not inhibit germination of PYR/PYL triple mutant pyr1;pyl1;pyl4 seeds
binding to PYR/PYL receptors [4]: could bind with PYR1/PYL1/PYL2/PYL3/PYL4/PYL5/PYL7/PYL10
binding ability with PYR1/PYL1/PYL2/PYL7 compared with ABA [4]: significantly higher than those of ABA
EC50 (PYL2 + HAB1 [6]): 30 nM
growth (soybean; 50 μM, a week of drought, one month after rewatering): grew significantly better than the plants sprayed with DMSO (control) and sprayed with 50 μM ABA
plant survival ([12]; 5 μM sprayed, 18 days after drought): still survived
drought resistance compared with compound with fewer halogen atoms (0604c) ([12]; same concentration, after 2 weeks of drought, FIG. 8c): stronger drought resistance
survival after rewatering (maize (corn)): Most of the corn sprayed with compound 0918 survived after rewatering

— patent publication US10842151B2, “Small molecule compound for enhancing plant stress resistance” (SHANGHAI INSTITUTES FOR BIOLOGICAL SCIENCES, CHINESE …, priority 2015, dated 2020)
